The test system of test [1] is S. aureus 1817 (MSSA). Description: MIC/MBC by broth microdilution reference method. Type of test: cell-based, Staphylococcus aureus. On the technique in general: Dilution methods test growth across graded concentrations, often in twofold steps.
Test [2] relates to S. aureus ATCC 29213 (MSSA reference strain). Description: MIC/MBC by broth microdilution reference method. Type of test: cell-based, Staphylococcus aureus.
Test [3] deals with all S. aureus isolates. In words: MIC/MBC by broth microdilution, summary over all isolates. Type of test: cell-based, Staphylococcus aureus.
For test [4], the system named is S. aureus 1816 (MSSA). In words: MIC/MBC by broth microdilution reference method. Type of test: cell-based, Staphylococcus aureus.
Test [5] has as its system S. aureus 1333 (MSSA). Description: MIC/MBC by broth microdilution reference method. Type of test: cell-based, Staphylococcus aureus.
In test [6] the test system is S. aureus 1818 (MSSA). In words: MIC/MBC by broth microdilution reference method. Type of test: cell-based, Staphylococcus aureus.
In test [7] the test system is S. aureus 1814 (MRSA). In words: MIC/MBC by broth microdilution reference method. Type of test: cell-based, Staphylococcus aureus.
Test [8] relates to S. aureus 1815 (MRSA). Description: MIC/MBC by broth microdilution reference method. Type of test: cell-based, Staphylococcus aureus.
The subject of test [9] is S. aureus 1334 (MSSA). In words: MIC/MBC by broth microdilution reference method. Type of test: cell-based, Staphylococcus aureus.
Test [10] has as its system S. aureus. Also on record: method as in ref 19 (Abad et al.). The conditions noted are these: concentrations 10x or 100x respective MICs; ref 19 (Abad et al.); cited from earlier work.
Where [11] appears, read: strain 1817, MSSA erythromycin resistant, broth microdilution.
[12] abbreviates: reference strain ATCC 29213, MSSA, broth microdilution.
Where [13] appears, read: strain 1816, MSSA multi-susceptible, broth microdilution.
Setting [14] is: strain 1333, MSSA multi-susceptible, broth microdilution.
Setting [15] is: strain 1818, MSSA multi-susceptible, broth microdilution.
The mark [16] stands for this setting: strain 1814, MRSA ciprofloxacin resistant, broth microdilution.
The mark [17] stands for this setting: strain 1815, MRSA gentamicin and erythromycin resistant, broth microdilution.
The mark [18] stands for this setting: strain 1334, MSSA multi-susceptible, broth microdilution.

In brackets after ≈: the same amount, converted by molar mass.

For the compound `CCCCCCCCCC(=O)N[C@@H](Cc1c[nH]c2ccccc12)C(=O)N[C@H](CC(N)=O)C(=O)N[C@@H](CC(=O)O)C(=O)N[C@@H]1C(=O)NCC(=O)N[C@@H](CCCN)C(=O)N[C@@H](CC(=O)O)C(=O)N[C@H](C)C(=O)N[C@@H](CC(=O)O)C(=O)NCC(=O)N[C@H](CO)C(=O)N[C@@H]([C@H](C)CC(=O)O)C(=O)N[C@@H](CC(=O)c2ccccc2N)C(=O)O[C@@H]1C` [DAP, daptomycin], the minimal bactericidal concentration (MBC) (commonly the smallest concentration meeting the test's criterion for killing) in test [1] (Staphylococcus aureus, MSSA) amounted to 0.5 µg/mL (≈ 0.309 µM); in test [2] (Staphylococcus aureus), 0.5 µg/mL (≈ 0.309 µM); in [4] (Staphylococcus aureus, MSSA), 0.5 µg/mL (≈ 0.309 µM); in [5] (Staphylococcus aureus, MSSA), 0.5 µg/mL (≈ 0.309 µM); in test [6] (Staphylococcus aureus, MSSA), 0.5 µg/mL (≈ 0.309 µM); in [7] (Staphylococcus aureus, MRSA), 0.5 µg/mL (≈ 0.309 µM). In addition, the MBC is 0.5 µg/mL (≈ 0.309 µM) in test [8] (Staphylococcus aureus, MRSA) and 0.5 µg/mL (≈ 0.309 µM) in test [9] (Staphylococcus aureus, MSSA). Moreover, the MIC in [1] (Staphylococcus aureus, MSSA) came out at 0.25 µg/mL (≈ 0.154 µM); in test [2] (Staphylococcus aureus), 0.25 µg/mL (≈ 0.154 µM); in [3] (Staphylococcus aureus, read-out: MICs for all S. aureus isolates) it was 0.25 µg/mL (≈ 0.154 µM); in test [4] (Staphylococcus aureus, MSSA), 0.25 µg/mL (≈ 0.154 µM); in test [5] (Staphylococcus aureus, MSSA), 0.25 µg/mL (≈ 0.154 µM); in [6] (Staphylococcus aureus, MSSA), 0.25 µg/mL (≈ 0.154 µM). In addition, the MIC turned out to be 0.25 µg/mL (≈ 0.154 µM) in test [7] (Staphylococcus aureus, MRSA); 0.25 µg/mL (≈ 0.154 µM) in test [8] (Staphylococcus aureus, MRSA); 0.25 µg/mL (≈ 0.154 µM) in test [9] (Staphylococcus aureus, MSSA).
On to `CO[C@H]1/C=C/O[C@@]2(C)Oc3c(C)c(O)c4c(c3C2=O)C2=NC3(CCN(CC(C)C)CC3)NC2=C(NC(=O)/C(C)=C\C=C\[C@H](C)[C@H](O)[C@@H](C)[C@@H](O)[C@@H](C)[C@H](OC(C)=O)[C@@H]1C)C4=O` [rifabutin], for which the “reduction in intracellular bacteria” value in test [10] is listed as “around 62.1%”.
Consider `CO[C@H]1/C=C/O[C@@]2(C)Oc3c(C)c(O)c4c(O)c(c(/C=N/N5CCN(C)CC5)c(O)c4c3C2=O)NC(=O)/C(C)=C\C=C\[C@H](C)[C@H](O)[C@@H](C)[C@@H](O)[C@@H](C)[C@H](OC(C)=O)[C@@H]1C` [rifampicin], for which, in [10], the “reduction in intracellular bacteria” value is given as “approximately 54.0%”.
Turning to `CO[C@H]1/C=C/O[C@@]2(C)Oc3c(C)c(O)c4c(O)c(c(/C=N/N5CCN(C6CCCC6)CC5)c(O)c4c3C2=O)NC(=O)/C(C)=C\C=C\[C@H](C)[C@H](O)[C@@H](C)[C@@H](O)[C@@H](C)[C@H](OC(C)=O)[C@@H]1C` [rifapentine], the “reduction in intracellular bacteria” value in test [10] was 45.3%.
For the compound teicoplanin [TEC], the MBC in test [1] (setting [11]) amounted to 1 µg/mL; in [2] (setting [12]), 1 µg/mL; in test [4] (setting [13]), 0.5 µg/mL; in test [5] (setting [14]), 1 µg/mL; in [6] (setting [15]), 2 µg/mL; in test [7] (setting [16]) it was 1 µg/mL. In addition, the MBC in test [8] (setting [17]) was 1 µg/mL; in [9] (setting [18]), 0.5 µg/mL. Also, the MIC is 0.5 µg/mL in test [1] (setting [11]); 0.5 µg/mL in test [2] (setting [12]); 0.25 µg/mL in test [4] (setting [13]); 0.5 µg/mL in test [5] (setting [14]); 1 µg/mL in test [6] (setting [15]); 0.5 µg/mL in test [7] (setting [16]). Moreover, the MIC in [8] (setting [17]) was 0.5 µg/mL; in test [9] (setting [18]), 0.25 µg/mL. For the same compound, in test [3] (summary over all S. aureus isolates of Table 1, broth microdilution), the “MICs for all S. aureus isolates” value was 0.25 to 1 mg/L.
